Measured values as given in US20050137215A1, “[C]-fused bicyclic proline derivatives and their use for treating arthritic conditions” (priority 2003, published 2005).
Structures can show the parent of a compound that is named as a salt.

What was measured:
[1] = system: Monosodium Iodoacetate-Induced Osteoarthritis in Rat Model of Joint Cartilage Damage; assay: Monosodium iodoacetate-induced osteoarthritis in rat (MIA Rat), loss of hind limb joint function; format: in vivo; settings: male Wistar rats, MIA 1 mg/joint, 10 mg/kg/day subcutaneously via osmotic pump
Text: Monosodium Iodoacetate-Induced Osteoarthritis in Rat Model of Joint Cartilage Damage (“MIA Rat”):
One end result of the induction of osteoarthritis in this model, as determined by histologic analysis, is the development of an osteoarthritic condition within the affected joint, as characterized by the loss of Toluidine blue staining and formation of osteophytes. Associated with the histologic changes is a concentration-dependent degradation of joint cartilage, as evidenced by affects on hind-paw weight distribution of the limb containing the affected joint, the presence of increased amounts of proteoglycan or hydroxyproline in the joint upon biochemical analysis, or histopathological analysis of the osteoarthritic lesions.
The invention compounds typically are not effective for relieving joint pain when administered in an acute model, such as the instant MIA Rat model, which has a duration of just 14 or 28 days.
Generally, In the MIA Rat model on Day 0, the hind-paw weight differential between the right arthritic joint and the left healthy joint of male Wistar rats (150 g) are determined with an incapacitance tester, model 2KG (Linton Instrumentation, Norfolk, United Kingdom). The incapacitance tester has a chamber on top with an outwardly sloping front wall that supports a rat's front limbs, and two weight sensing pads, one for each hind paw, that facilitates this determination. Then the rats are anesthetized with isofluorine, and the right, hind leg knee joint is injected with 1.0 mg of mono-iodoacetate (“MIA”) through the infrapatellar ligament. Injection of MIA into the joint results in the inhibition of glycolysis and eventual death of surrounding chondrocytes. The rats are further administered either an invention compound or vehicle (in the instant case, water) daily for 14 days or 28 days.
The invention compound is typically administered at a dose of 30 mg of per kilogram of rat per day (30 mg/kg/day), but may be administered at other doses such as, for example, 10 mg/kg/day, 60 mg/kg/day, 90-mg/kg/day, or 100 mg/kg/day according to the requirements of the invention compound being studied. It is well within the level of ordinary skill in the pharmaceutical arts to determine a proper dosage of an invention compound in this model.
Administration of an invention compound in this model is optionally by oral administration or by intravenous administration via an osmotic pump. After 7 and 14 days for a two week study, or 7, 14, and 28 days for a four week study, the hind-paw weight distribution is again determined. Typically, the animals administered vehicle alone place greater weight on their unaffected left hind paw than on their right hind paw, while animals administered an invention compound show a more normal (i.e., more like a healthy animal) weight distribution between their hind paws. This change in weight distribution was proportional to the degree of joint cartilage damage. Percent inhibition of a change in hind paw joint function is calculated as the percent change in hind-paw weight distribution for treated animals versus control animals. For example, for a two week study, [formula] wherein: ΔWC is the hind-paw weight differential between the healthy left limb and the arthritic limb of the control animal administered vehicle alone, as measured on Day 14; and • ΔWG is the hind-paw weight differential between the healthy left limb and the arthritic limb of the animal administered an invention compound as measured on Day 14.
Administration via osmotic pump is preferable for screening compounds. In a particular experiment, monosodium iodoacetate (“MIA”) (1 mg/joint) was injected through the infrapatellar ligament of the right knee of anesthetized male, Wistar rats. The contralateral control knee was injected with 50 μL of physiologic saline. […]

[2] = target: alpha-2-delta receptor 1 (Sus scrofa, UniProt A0A287BIN3); assay: [3H]Gabapentin A2DR1 binding assay; design: species or system pig; settings: Biological Method 4; read-out: A2DR1 IC50, displacement of [3H]-gabapentin
Text: (§1) [^3H]Gabapentin A2DR1 and A2DR2 Binding Assays (“A2DR1” and “A2DR2”, Respectively)
(§2) HEK 293 recombinant cells expressing A2DR1 or A2DR2 protein are harvested and washed in phosphate buffered saline (“PBS”). The cells are centrifuged and resuspended in tris(hydroxymethyl)aminomethane-ethylenediaminetetraacetic acid (“Tris-EDTA” or “TE”) buffer containing Roche Complete Protease Inhibitor Cocktail. The cells are homogenized, centrifuged at 3000×g, and the supernatant centrifuged again at 50,000×g. The resulting pellet is resuspended and homogenized in TE. Following determination of A2DR1 or A2DR2 protein concentration, aliquots are stored at −70° C. until the day of testing (membrane preparation may be used for at least 6 months).
(§3) In one version, the binding assay is set up in a 96-well format using deep-well polypropylene plates. […] Non-specific binding for each plate is determined by the addition of 10 μM of pregabalin instead of test compound in a few of the 96 wells. […] The mats are placed into plastic pouches, scintillation cocktail is added, the pouches are sealed, and radioactivity for each sample is counted.
(§4) Specific binding values for each concentration are transformed and then analyzed by a 4-parameter nonlinear regression equation provided by Prism graphics software by Graph Pad to determine IC50 values by conventional means.
Displacement of [3H]-gabapentin from an alpha-2-delta receptor-1 or an alpha-2-delta receptor-2 by certain invention compounds is evidenced below in Table 2. In Table 2, the displacement was determined according to one of the above Biological Methods 4 or 6, and reported as an IC50 in micromolar concentration of invention compound in the columns labeled “A2DR1 IC50 (μM),” “A2DR2 IC50 […],” and “GABAPAA IC50 (μM),” respectively, for a reference compound, racemic octahydroisoindole-2-carboxylic acid (“OHIII2CA”) and certain invention compounds, which are referenced by Compound Example number in the column labeled “Compound Example No.”.

[3] = target: alpha-2-delta receptor 2 (UniProt A0A8W4FF87); assay: [3H]Gabapentin A2DR2 binding assay; design: species or system pig; settings: Biological Method 4; read-out: A2DR2 IC50, displacement of [3H]-gabapentin
Text: as §1, §2, §3
Specific binding values for each concentration are transformed and then analyzed by a 4-parameter nonlinear regression equation provided by Prism graphics software by Graph Pad to determine IC50 values by conventional means. […]

[4] = target: alpha-2-delta receptors, membrane from pig cortex (Sus scrofa, UniProt O77773); assay: [3H]Gabapentin A2DR binding assay (GABAPAA / GABAP); settings: Biological Method 6, pig cortex membrane; read-out: GABAPAA IC50, displacement of [3H]-gabapentin
alpha-2-delta receptors, membrane from pig cortex, sequence (O77773 25-1091): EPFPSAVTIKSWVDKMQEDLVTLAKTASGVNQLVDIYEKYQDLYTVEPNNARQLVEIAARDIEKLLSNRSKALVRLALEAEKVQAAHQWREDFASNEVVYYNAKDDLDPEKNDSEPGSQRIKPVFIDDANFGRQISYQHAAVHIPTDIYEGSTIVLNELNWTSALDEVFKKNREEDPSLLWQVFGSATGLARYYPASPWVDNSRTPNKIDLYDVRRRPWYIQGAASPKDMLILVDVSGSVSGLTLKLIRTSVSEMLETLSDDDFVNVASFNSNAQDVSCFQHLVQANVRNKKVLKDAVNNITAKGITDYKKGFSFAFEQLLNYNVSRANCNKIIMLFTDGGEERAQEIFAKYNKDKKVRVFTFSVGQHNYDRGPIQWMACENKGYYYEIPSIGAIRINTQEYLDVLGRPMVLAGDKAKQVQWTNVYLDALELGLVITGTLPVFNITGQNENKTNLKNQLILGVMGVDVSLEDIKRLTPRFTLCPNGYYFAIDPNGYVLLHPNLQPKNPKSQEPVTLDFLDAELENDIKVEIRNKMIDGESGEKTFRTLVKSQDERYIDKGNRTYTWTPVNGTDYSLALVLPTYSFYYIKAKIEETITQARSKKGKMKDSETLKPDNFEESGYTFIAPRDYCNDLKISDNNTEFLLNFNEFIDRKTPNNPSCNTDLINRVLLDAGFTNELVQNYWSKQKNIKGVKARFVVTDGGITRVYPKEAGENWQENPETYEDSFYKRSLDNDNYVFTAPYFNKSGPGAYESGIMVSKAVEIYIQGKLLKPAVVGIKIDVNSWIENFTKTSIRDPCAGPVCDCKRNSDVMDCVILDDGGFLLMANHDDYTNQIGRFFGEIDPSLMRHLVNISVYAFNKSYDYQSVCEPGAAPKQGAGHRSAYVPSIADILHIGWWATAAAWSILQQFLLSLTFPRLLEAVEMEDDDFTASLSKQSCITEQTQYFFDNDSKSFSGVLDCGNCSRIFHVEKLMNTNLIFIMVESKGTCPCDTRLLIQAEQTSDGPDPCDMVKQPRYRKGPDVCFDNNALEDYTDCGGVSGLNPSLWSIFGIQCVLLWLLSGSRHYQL
Experimental: In one version, the binding assay is set up in a 96-well format using deep-well polypropylene plates. In a total volume of 500 μL, the following additions are made: 250 μL buffer [10 mM N-2-hydroxyethylpiperazine-N′-2-ethanesulfonic acid (“HEPES”), pH 7.4], 25 μL [3H]gabapentin (10 nM final concentration), 200 μL thawed tissue membrane preparation from Step (1) (˜40 μg protein), and 25 μL of test compound at 7 test dilutions (for example, 0.001, 0.01, 0.03, 0.1, 0.3, 1.0, and 10 μM concentrations). Non-specific binding for each plate is determined by the addition of 10 μM of pregabalin instead of test compound in a few of the 96 wells. Following incubation for 45 minutes at 21° C., the contents of the wells are filtered under vacuum onto glass filter/B (“GF/B”) filter mats and then washed 4×1 mL with chilled 50 mM tris(hydroxymethyl)aminomethane (“Tris”) HCl, pH 6.9. The mats are placed into plastic pouches, scintillation cocktail is added, the pouches are sealed, and radioactivity for each sample is counted.
as §4
[^3H]Gabapentin A2DR Binding Assay (“GABAPAA” or “GABAP”) […]

[5] = target: leucine transport system (Cricetulus griseus, UniProt G3GRU9); assay: Leucine transport system binding assay (LTSBA), [3H]leucine uptake in CHO K1 cells; format: cell-based; settings: conclusion from Table 3
leucine transport system, sequence (G3GRU9 entry or part of it): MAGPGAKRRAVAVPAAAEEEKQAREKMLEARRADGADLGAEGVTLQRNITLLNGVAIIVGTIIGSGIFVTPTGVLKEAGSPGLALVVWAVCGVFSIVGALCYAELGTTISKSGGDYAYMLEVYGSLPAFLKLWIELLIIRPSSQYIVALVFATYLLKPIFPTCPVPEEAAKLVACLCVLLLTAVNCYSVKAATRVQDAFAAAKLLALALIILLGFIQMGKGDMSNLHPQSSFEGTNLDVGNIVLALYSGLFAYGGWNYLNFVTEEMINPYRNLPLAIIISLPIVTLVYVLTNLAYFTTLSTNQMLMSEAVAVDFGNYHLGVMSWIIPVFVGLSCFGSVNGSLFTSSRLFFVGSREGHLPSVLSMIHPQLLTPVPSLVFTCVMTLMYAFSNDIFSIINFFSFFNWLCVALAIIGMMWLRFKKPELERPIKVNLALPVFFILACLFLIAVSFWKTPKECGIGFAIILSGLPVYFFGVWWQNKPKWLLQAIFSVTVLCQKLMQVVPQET
leucine transport system, sequence (A0A9J7CH39 entry or part of it, further chain): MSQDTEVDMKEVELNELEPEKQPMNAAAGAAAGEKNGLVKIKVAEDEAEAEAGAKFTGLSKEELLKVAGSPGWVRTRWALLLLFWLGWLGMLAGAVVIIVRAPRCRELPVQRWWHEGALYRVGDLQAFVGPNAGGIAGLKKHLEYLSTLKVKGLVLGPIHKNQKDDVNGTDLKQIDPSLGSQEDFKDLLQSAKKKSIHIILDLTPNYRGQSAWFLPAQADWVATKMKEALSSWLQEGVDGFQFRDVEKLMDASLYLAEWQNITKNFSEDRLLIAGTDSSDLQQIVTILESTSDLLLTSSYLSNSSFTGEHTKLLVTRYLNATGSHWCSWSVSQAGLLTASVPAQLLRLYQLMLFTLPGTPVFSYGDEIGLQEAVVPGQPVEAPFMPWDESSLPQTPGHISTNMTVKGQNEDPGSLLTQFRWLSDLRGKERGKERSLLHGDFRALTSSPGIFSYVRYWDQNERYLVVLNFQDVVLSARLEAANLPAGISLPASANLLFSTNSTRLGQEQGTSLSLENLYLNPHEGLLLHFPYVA
Experimental: Leucine Transport System Binding Assay (“LTSBA”) The sodium-containing buffer for transport assay was phosphate buffered saline (“PBS”) consisting of 137 mM NaCl, 2.7 mM KCl, 10.6 mM Na2HPO4, and 1.5 mM KH2PO4. The sodium-free buffer had equimolar amounts of choline chloride and choline phosphate in place of NaCl and […], respectively. This buffer is referred to as PBC. Prior to use, both PBS and PBC buffers (pH 7.4) were supplemented with 5.6 mM D-glucose, 0.49 mM MgCl2, and 0.9 mM CaCl2 (GMC). For cultured monolayer cells (in general, CHO K1 cells), the cluster tray transport assay was used as described previously (Su et al, J. Neurochem., 1995; 64:2125-2131, and references therein). […] The initial transport rates were determined by measuring uptake of tracer [3H] […] Secondary analysis of the initial velocity kinetic curves were determined by non linear regression analysis, using the equation: log V=log {[Vmax.S/(Km+S)]+P.[S]} where V, S, Vmax, and Km have their conventional meanings, and P represents the first order rate constant describing the nonsaturable uptake. An IC50 was determined as percentage inhibition of saturable leucine uptake. […] They were calculated by subtracting the corresponding substrate uptake rates in the presence of 10 mM excess unlabeled leucine from the total uptake rates. […] The efflux was calculated as percentage of the intracellular labeled substrate at zero time. […]

melting point	SMILES	% I @ 10 mg/kg/day (%) (± SEM): inhibition of loss of hind limb joint function in MIA at Day 14 [1]	also measured
235 to 241 °C (dec.)	COC1CC2CNC(C(=O)O)C2CC1OC (centres unmarked)	–	–
200 to 205 °C (dec.)	O=C(O)C1NCC2C1CCC2(F)F (centres unmarked)	–	–
188 to 190 °C	O=C(O)[C@@H]1NC[C@@H]2[C@H]1[C@H]1CC[C@@H]2O1 (racemic)	–	–
250 to 255 °C	O=C(O)[C@@]12CCCN1C[C@H]1CCCC[C@H]12 (racemic) (as salt: hydrochloride)	–	–
–	CC1(C)N[C@H](C(=O)O)[C@@H]2CCCC[C@H]21 (racemic) [Example B5]	32	IC50 [2]: ≥ 10 µM; IC50 [3]: ≥ 10 µM
–	O=C(O)N1CC2CCCCC2C1 (racemic) [OHII2CA, racemic octahydroisoindole-2-carboxylic acid]	–	IC50 [4]: 0.03 µM
–	CN1CC2CCCCC2C1(C)C(=O)O (centres unmarked) [Example B1]	32	–
–	C[C@]1(C(=O)O)NC[C@H]2CCCC[C@H]21 [Example B2]	−5	IC50 [2]: ≥ 10 µM; IC50 [3]: ≥ 10 µM
–	CC12CCCCC1CNC2C(=O)O (centres unmarked) [Example B4]	13	–
–	O=C(O)[C@@]12CCCN1C[C@H]1CCCC[C@H]12 [Example M1]	–	IC50 [2]: ≥ 10 µM
–	CN1C[C@H]2C3CCC(CC3)[C@H]2[C@@H]1C(=O)O [Example R2]	−20	–
–	O=C(O)C1NCC2C3CCC(CC3)C12 (centres unmarked) [Example R3]	20	–
–	Cl.O=C(O)N1CC2CCCCC2C1 (centres unmarked) [OHII2CA HCl, octahydroisoindole-2-carboxylic acid hydrochloride]	–	binding to the leucine transport system (in words) [5]: weakly bind or do not bind
